Reference: US9963708B2, “Recombinant vector for foreign gene expression without biological circuit interference of host cell and uses thereof” (INDUSTRY FOUNDATION OF CHONNAM NATIONAL UNIVERSITY, priority 2014, dated 2018)

System: cGMP receptor protein
Test: Inducible GFP expression with cGMP added directly as inducing agent, without guanylyl cyclase
Assay type: cell-based, Rhodospirillum centenum
Settings: cGMP 500 μM in 0.1% DMSO, 6 hours; pTrc99a-P-CRP + pPRO (0896-GFPuv)3
Excerpt: According to an inducible expression system, the target gene product is generally expressed in a large amount when there are internal/external inducing agents (chemicals, heat, oxygen, osmotic pressure, or the like) as a signal, and it is widely used in various fields. The most commonly used inducible system is a system in which IPTG is used as an inducing agent. However, being a chemically synthesized inducing agent, it is toxic to cells and, by producing an excess amount of proteins within a short time, a metabolic burden is stressful to the host, and thus it may work as a growth-inhibiting factor. […] To do so, guanylyl cyclase which converts GTP to cGMP molecule was removed, and cGMP was added as an inducing agent to a medium and the level of gene expression was determined. […]
pTrc99a-Cyc-P-CRP plasmid was treated with restriction enzymes BamHI and HindIII to remove the polynucleotide encoding the guanylyl cyclase and according to treatment with a Klenow fragment, self-ligation was induced to complete pTrc99a-P-CRP construct. […] After inoculation to have 1% concentration of the original culture (15 ml), when the absorbance (OD600) of the culture reaches 0.5, cGMP dissolved in 0.1% DMSO was added to 500 μM and expression of the green fluorescent protein was induced for 6 hours. […]

With `Nc1nc2c(ncn2[C@@H]2O[C@@H]3COP(=O)(O)O[C@H]3[C@H]2O)c(=O)[nH]1` [cGMP, cyclic guanosine monophosphate] as the compound, how does the “expression of the green fluorescent protein induced by cGMP” value read?
The value was “there was indeed expression of the green fluorescent protein”.
